Residues, ends and D or L forms follow the SMILES beside them. *: point of attachment. Cbz = O=C(OCc1ccccc1)*

One data set relates to SMMC-7721. Kind of data set: Cytotoxicity against human SMMC7721 cells after 48 hrs by MTT assay. In kind it is functional, cell-based. Conditions: SMMC-7721, 48 h.
Data set [1] concerns RAW264.7. Kind of data set: Cytotoxicity against mouse RAW264.7 cells after 18 hrs by MTS assay. Particulars: raw264.7, 18 h. In kind it is cell-based.
The next data set relates to HL-60. Kind of data set: Cytotoxicity against human HL60 cells after 48 hrs by MTT assay. Type of data set: functional, cell-based. Conditions: HL-60, 48 h.
A further data set concerns MCF7. Kind of data set: Cytotoxicity against human MCF7 cells after 48 hrs by MTT assay. Type of data set: functional, cell-based. Particulars: MCF7, 48 h.
Another data set concerns A549. The data set can be described thus: Cytotoxicity against human A549 cells after 48 hrs by MTT assay. Type of data set: functional, cell-based. Conditions: A549, 48 h.
The subject of the next data set is SW480. The data set can be described thus: Cytotoxicity against human SW480 cells after 48 hrs by MTT assay. Type of data set: functional, cell-based. Conditions: SW480, 48 h.
Data set [2] has as its system RAW264.7. Kind of data set: Antiinflammatory activity in mouse RAW264.7 cells assessed as inhibition of LPS-induced nitric oxide production after 18 hrs by Griess method. Type of data set: functional, cell-based. Particulars: RAW264.7, 18 h.

As for `C[C@@H]1[C@@H]2C[C@H](O)[C@H]3[C@]45CCCC(C)(C)[C@H]4[C@H](O)[C@](O)(OC5)[C@@]3([C@@H]1O)[C@@H]2O`, the IC50 is greater than 10 µM in the data set on SMMC-7721; greater than 10 µM in the data set with HL-60; greater than 10 µM in the data set with MCF7; greater than 10 µM with A549; greater than 10 µM with SW480; greater than 25 µM in the data set with RAW264.7 [2]. Further, the Activity entry in the data set on RAW264.7 [1] is on record as “Non-toxic”.

As for `C[C@@H]1[C@@H]2CC[C@H]3[C@]45CCCC(C)(C)[C@H]4[C@H](O)[C@](O)(OC5=O)[C@@]3([C@@H]1O)[C@@H]2O`, the IC50 was greater than 10 µM in the data set on SMMC-7721; greater than 10 µM in the data set on HL-60; greater than 10 µM in the data set on MCF7; greater than 10 µM with A549; greater than 10 µM in the data set with SW480; greater than 25 µM with RAW264.7 [2]. In addition, in the data set with RAW264.7 [1], the Activity result is listed as “Non-toxic”.

In the case of `C=C1[C@@H](O)[C@@]23C(=CC[C@@H]1[C@H]2O)[C@@]12CO[C@@]3(O)[C@@H](O)[C@@H]1C(C)(C)CC[C@@H]2O`, the IC50 with SMMC-7721 was greater than 10 µM; with HL-60, greater than 10 µM; with MCF7, greater than 10 µM; in the data set with A549 it was greater than 10 µM; in the data set on SW480, greater than 10 µM; in the data set on RAW264.7 [2], greater than 25 µM. Also, the Activity entry with RAW264.7 [1] is on record as “Non-toxic”.

For the compound `C=C1C(=O)[C@]23C[C@H]1CC=C2[C@@]12CO[C@@]3(O)[C@@H](O)[C@@H]1C(C)(C)CC[C@@H]2O`, the IC50 was found to be 3.5 µM with SMMC-7721; 8.8 µM in the data set with HL-60; 3.3 µM with MCF7; 4.6 µM in the data set with A549; 3.4 µM in the data set on SW480; 2 µM in the data set on RAW264.7 [2]. The Activity entry in the data set on RAW264.7 [1] is given as “Non-toxic”.

For `C=C1[C@H]2C[C@@H]3OC(=O)[C@@H]4C(C)(C)CC[C@@H]5OC(=O)[C@](C2)([C@@H]1O)[C@@H]3[C@]54C=O`, the 50% inhibitory concentration (IC50) in the data set with SMMC-7721 is greater than 10 µM; in the data set on HL-60, 6.1 µM; in the data set on MCF7 it was greater than 10 µM; with A549, greater than 10 µM; in the data set with SW480 it was greater than 10 µM; with RAW264.7 [2], 2 µM. In the data set with RAW264.7 [1], the Activity entry is “Non-toxic”.

Turning to `C=C1C(=O)[C@]23[C@H](O)[C@H]1C[C@@H](O)[C@H]2[C@]12CCCC(C)(C)[C@H]1[C@H](O)[C@@]3(O)OC2`, the IC50 was 4.5 µM in the data set with SMMC-7721; 3.5 µM with HL-60; 5.1 µM in the data set with MCF7; 8.6 µM in the data set with A549; 2.5 µM in the data set on SW480; 1.7 µM with RAW264.7 [2]. Also, in the data set on RAW264.7 [1], the Activity entry is “Non-toxic”.

Take `C=C1C(=O)[C@]23C[C@H]1CC[C@H]2[C@@]12CO[C@]3(O)[C@@H](O)[C@@H]1C(C)(C)CC[C@@H]2O`: the IC50 worked out at 5.9 µM in the data set with SMMC-7721; 7.9 µM in the data set with HL-60; 4.2 µM in the data set on MCF7; 5.6 µM in the data set on A549; 3.2 µM with SW480; 3.4 µM with RAW264.7 [2]. Further, the Activity result in the data set with RAW264.7 [1] is “Non-toxic”.

In the case of `C=C1[C@@H](O)[C@]23[C@H](O)[C@H]1CC[C@H]2[C@@]12C(=O)O[C@]3(O)[C@@H](O)[C@@H]1C(C)(C)CC[C@@H]2O`, the Activity entry in the data set with RAW264.7 [1] is given as “Non-toxic”. Moreover, in the data set on RAW264.7 [2], the IC50 turned out to be 6.1 µM.

For the compound `C=C1C(=O)[C@]23[C@H](O)[C@H]1CC[C@H]2[C@@]12[C@@H](OC)O[C@]3(O)[C@@H](O)[C@@H]1C(C)(C)CC[C@@H]2O`, the IC50 in the data set with SMMC-7721 was greater than 10 µM; in the data set on HL-60 it was 7 µM; in the data set on MCF7, greater than 10 µM; with A549, greater than 10 µM; in the data set with SW480, 9.4 µM; in the data set on RAW264.7 [2], greater than 25 µM. For the same compound, in the data set on RAW264.7 [1], the Activity entry is given as “Non-toxic”.

On to `C=C1[C@@H](O)[C@]23[C@H](O)[C@H]1CC[C@H]2[C@@]12C(OC)O[C@]3(O)[C@@H](O)[C@@H]1C(C)(C)CC[C@@H]2O` (stereo partly specified), for which the IC50 with SMMC-7721 was greater than 10 µM; in the data set on HL-60 it was 5.3 µM; in the data set on MCF7 it was greater than 10 µM; in the data set on A549, greater than 10 µM; with SW480, greater than 10 µM; in the data set with RAW264.7 [2], greater than 25 µM. For the same compound, the Activity result in the data set on RAW264.7 [1] was “Non-toxic”.

With `C=C1C(=O)[C@@]23[C@@H]4OC(C)(C)O[C@@]25OC[C@]2(CCCC(C)(C)[C@H]2[C@@H]5O)[C@@H]3[C@@H](O)C[C@@H]14`, the concentration for half-maximal inhibition (IC50) in the data set with SMMC-7721 was 2.6 µM; in the data set with HL-60, 1.5 µM; with MCF7, 1.8 µM; with A549, 3.4 µM; with SW480 it was 2 µM; with RAW264.7 [2], 1.1 µM. Also, the Activity entry in the data set with RAW264.7 [1] is “Non-toxic”.

Turning to `C=C1[C@H]2CC3=C4[C@](C2)(C(=O)O[C@H]2CCC(C)(C)[C@@H]([C@@H](O)O3)[C@]42C=O)[C@@H]1OC(C)=O`, the 50% inhibitory concentration (IC50) with SMMC-7721 was greater than 10 µM; in the data set with HL-60, greater than 10 µM; with MCF7, greater than 10 µM; in the data set with A549 it was greater than 10 µM; in the data set on SW480 it was greater than 10 µM; with RAW264.7 [2], greater than 25 µM. Also, in the data set with RAW264.7 [1], the Activity entry is listed as “Non-toxic”.

In the case of `C=C1[C@H]2CC[C@@H]3[C@](C2)(C(=O)O[C@@H]2CCC(C)(C)[C@H]4[C@H](O)O[C@@H](OC)[C@@]432)[C@@H]1OC(C)=O`, the IC50 is greater than 10 µM with SMMC-7721; greater than 10 µM in the data set on HL-60; greater than 10 µM in the data set on MCF7; greater than 10 µM in the data set on A549; greater than 10 µM in the data set on SW480; greater than 25 µM in the data set on RAW264.7 [2]. In the data set on RAW264.7 [1], the Activity result is listed as “Non-toxic”.

Turning to `C=C1C(=O)[C@]23[C@H](OC(C)=O)[C@H]1C[C@H](OC(C)=O)[C@H]2[C@]12CCCC(C)(C)[C@H]1[C@H](O)[C@]3(O)OC2`, the 50% inhibitory concentration (IC50) is greater than 10 µM in the data set on SMMC-7721; 4.6 µM with HL-60; greater than 10 µM with MCF7; greater than 10 µM with A549; 3.2 µM with SW480; 6.3 µM with RAW264.7 [2]. In the data set with RAW264.7 [1], the Activity entry is “Non-toxic”.

Take `C=C1C(=O)[C@]23[C@H](O)[C@H]1CC[C@H]2[C@@]12[C@@H](OCCCC)O[C@@]3(O)[C@@H](O)[C@@H]1C(C)(C)CC[C@@H]2O` (mixture of isomers): the IC50 was found to be 3.2 µM with SMMC-7721; 1.2 µM in the data set on HL-60; 2.6 µM with MCF7; 3.9 µM in the data set with A549; 2.8 µM in the data set with SW480; 1.5 µM with RAW264.7 [2]. In addition, the Activity result with RAW264.7 [1] was “Non-toxic”.

Turning to `C=C1C(=O)[C@]23[C@H](O)[C@H]1CC[C@H]2[C@@]12[C@H](OCC)O[C@@]3(O)[C@@H](O)[C@@H]1C(C)(C)CC[C@@H]2O` (relative stereo), the 50% inhibitory concentration (IC50) in the data set with SMMC-7721 is greater than 10 µM; in the data set on HL-60 it was 5.9 µM; in the data set with MCF7, 8.4 µM; in the data set with A549, greater than 10 µM; in the data set on SW480 it was 7.8 µM; in the data set with RAW264.7 [2], 3.9 µM. In addition, in the data set on RAW264.7 [1], the Activity result is “Non-toxic”.

On to `C=C1[C@H]2C[C@H](O)[C@@H]3[C@](C2)(C(=O)O[C@@H]2CCC(C)(C)[C@H]4[C@H](O)O[C@H](OC)[C@@]432)[C@@H]1OC(C)=O` (relative stereo), for which the IC50 was greater than 10 µM in the data set on SMMC-7721; 4.3 µM in the data set on HL-60; 3.5 µM with MCF7; greater than 10 µM in the data set on A549; 3.3 µM with SW480; 1.5 µM with RAW264.7 [2]. Further, the Activity result with RAW264.7 [1] was “Non-toxic”.

As to `C=C1C(=O)[C@]23[C@H](O)[C@H]1CC[C@H]2[C@@]12CO[C@@]3(O)[C@@H](O)[C@@H]1C(C)(C)CC[C@@H]2OC(C)=O` [LASIOKAURIN], the IC50 in the data set on SMMC-7721 was found to be 2.7 µM; in the data set on HL-60, 1.8 µM; with MCF7, 2.5 µM; in the data set with A549 it was 6.7 µM; with SW480, 2.4 µM; with RAW264.7 [2], 1.9 µM. Moreover, the Activity result in the data set on RAW264.7 [1] is “Non-toxic”.

Take `CC(C)C[C@@H](C=O)NC(=O)[C@H](CC(C)C)NC(=O)[C@H](CC(C)C)NC(=O)OCc1ccccc1` [MG-132] (Cbz-Leu-Leu-Leu-aldehyde): the Activity result in the data set on RAW264.7 [1] was “Non-toxic”. The half-inhibitory concentration (IC50) in the data set on RAW264.7 [2] came out at 0.1 µM.

For `C=C1C(=O)[C@]23[C@H](O)[C@H]1CC[C@H]2[C@@]12CO[C@]3(O)[C@@H](O)[C@@H]1C(C)(C)CC[C@@H]2O` [ORIDONIN], the IC50 is greater than 10 µM in the data set on SMMC-7721; 2.5 µM with HL-60; greater than 10 µM in the data set on MCF7; greater than 10 µM in the data set with A549; greater than 10 µM in the data set with SW480; 5.2 µM in the data set with RAW264.7 [2]. Further, in the data set on RAW264.7 [1], the Activity entry was “Non-toxic”.

`CC(=O)O[C@H]1C(=O)[C@@]2(C)[C@H]([C@H](OC(=O)c3ccccc3)[C@]3(O)C[C@H](OC(=O)[C@H](O)[C@@H](NC(=O)c4ccccc4)c4ccccc4)C(C)=C1C3(C)C)[C@]1(OC(C)=O)CO[C@@H]1C[C@@H]2O` [PACLITAXEL]: the IC50 with SMMC-7721 is less than 0.008 µM; in the data set with HL-60, less than 0.008 µM; in the data set on MCF7, less than 0.008 µM; with SW480, 0.04 µM.

Turning to `C=C1C(=O)[C@]23[C@H](O)[C@H]1CC[C@H]2[C@@]12C(OC)O[C@@]3(O)[C@@H](O)[C@@H]1C(C)(C)CC[C@H]2O` (stereo partly specified) [RABDOTERNIN E], the 50% inhibitory concentration (IC50) in the data set on SMMC-7721 was greater than 10 µM; with HL-60, 2.6 µM; with MCF7, greater than 10 µM; with A549 it was greater than 10 µM; with SW480 it was 4.1 µM; in the data set with RAW264.7 [2] it was 2.3 µM. Also, in the data set on RAW264.7 [1], the Activity result was “Non-toxic”.

These data come from ChEMBL document CHEMBL2406996, “Bioactive ent-kaurane diterpenoids from Isodon rosthornii” (J Nat Prod, 2013).
